Data taken from patent publication US7858635B2 (priority 2005, dated 2010).
Read-outs that look alike come from different tables or passages of the source.

Columns and labels:
M1 muscarinic receptor = biological target: T1, M1 muscarinic receptor (Homo sapiens, UniProt P11229); assay: Functional mobilization of intracellular calcium (FLIPR, Fluo-3), M1-CHO cells; type: cell-based; conditions: for Emax: read-out: M1 Efficacy
T1 construct: expressed in transfected cells; host or cells: CHO cells (M1-CHO, under zeocin and G418 selection)
T1 sequence (P11229 1-460): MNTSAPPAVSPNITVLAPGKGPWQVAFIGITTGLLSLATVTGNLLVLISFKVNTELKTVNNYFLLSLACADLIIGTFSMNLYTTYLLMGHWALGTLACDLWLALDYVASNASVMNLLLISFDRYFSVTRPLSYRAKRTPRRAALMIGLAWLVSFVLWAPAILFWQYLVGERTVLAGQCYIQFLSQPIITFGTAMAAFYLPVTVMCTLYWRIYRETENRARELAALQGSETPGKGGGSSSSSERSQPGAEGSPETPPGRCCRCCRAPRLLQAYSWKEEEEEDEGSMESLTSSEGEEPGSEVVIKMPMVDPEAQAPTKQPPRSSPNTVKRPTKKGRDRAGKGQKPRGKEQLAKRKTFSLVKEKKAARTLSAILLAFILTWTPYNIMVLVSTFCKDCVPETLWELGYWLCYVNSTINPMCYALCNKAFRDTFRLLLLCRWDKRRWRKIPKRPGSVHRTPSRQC
Summary of the method: (§1)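 Intracellular calcium was tracked by fluorescence (488/540 nm) over 60 sec after compound addition to dye-loaded CHO cells expressing the receptor. Inhibitory activity used a 15 min pre-incubation before carbachol at the subtype EC80.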

M4 muscarinic receptor = biological target: T2, M4 muscarinic receptor (Homo sapiens, UniProt P08173); assay: Functional mobilization of intracellular calcium (FLIPR, Fluo-3), M4-CHO cells; type: cell-based; conditions: for Emax: read-out: M4 Efficacy
T2 construct: expressed in transfected cells; host or cells: CHO cells (M4-CHO, under puromycin, zeocin and blasticidin selection)
T2 sequence (P08173 1-479): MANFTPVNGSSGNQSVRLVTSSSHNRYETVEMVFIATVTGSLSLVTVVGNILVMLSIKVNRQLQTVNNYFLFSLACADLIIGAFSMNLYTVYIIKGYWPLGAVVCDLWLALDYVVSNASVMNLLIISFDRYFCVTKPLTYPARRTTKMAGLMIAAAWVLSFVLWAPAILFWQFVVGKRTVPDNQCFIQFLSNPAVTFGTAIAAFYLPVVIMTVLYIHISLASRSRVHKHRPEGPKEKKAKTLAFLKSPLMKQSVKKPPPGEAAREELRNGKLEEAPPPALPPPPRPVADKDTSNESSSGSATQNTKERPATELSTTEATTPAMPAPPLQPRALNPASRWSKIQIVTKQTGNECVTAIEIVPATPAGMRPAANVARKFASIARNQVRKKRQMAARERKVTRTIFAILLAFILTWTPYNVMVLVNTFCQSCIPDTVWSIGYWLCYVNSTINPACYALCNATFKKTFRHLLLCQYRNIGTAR
Summary of the method: as §1

[1] = compound nos. 1-454, 100% efficacy is the maximum response obtained with the Carbachol control
[2] = compound nos. 1-454, M1-CHO cells, calcium mobilization
[3] = compound nos. 1-454, M4-CHO cells, calcium mobilization
[4] = compound nos. 455-509, 100% efficacy is the maximum response obtained with the Carbachol control

| SMILES | Emax (M1 muscarinic receptor; [1]) [%] | Emax (M4 muscarinic receptor; [1]) [%] | M1 Activity (M1 muscarinic receptor; [2]) | M4 Activity (M4 muscarinic receptor; [3]) | further results |
| --- | --- | --- | --- | --- | --- |
| COCCOC(=O)N1CCC(CN2CCC3(CC2)C[C@H](NC(C)=O)c2ccccc23)CC1 [compound 412] | < 65 | < 55 | – | – | M1 Activity (M1 muscarinic receptor; compound nos. 1-454): ++ (activity was measured to be between 0.7 μM and 3.0 μM); M4 Activity (M4 muscarinic receptor; compound nos. 1-454): + (activity was measured to be greater than or equal to 4.0 μM) |
| O=C(O[C@H]1CCOC1)N1C2CCC1CC(N1CCC3(CC1)C(=O)Nc1ccccc13)C2 (stereo partly drawn) [compound 301] | < 65 | < 55 | + (activity was measured to be greater than or equal to 3.0 μM) | + (activity was measured to be greater than or equal to 4.0 μM) | – |
| CCOC(=O)N1CCC(N2CCC3(CC2)CN(C(C)=O)c2ccc(-c4cccnc4)cc23)CC1 [compound 234] | 65 to 85 | 55 to 70 | +++ (activity was measured to be less than or equal to 0.7 μM) | +++ (activity was measured to be less than or equal to 0.1 μM) | – |
| CC(C)OC(=O)N1C2CCC1CC(N1CCC3(CC1)CN(C(=O)O[C@@H]1CCOC1)c1ccc(F)cc13)C2 (stereo partly drawn) [compound 361] | < 65 | < 55 | ++ (activity was measured to be between 0.7 μM and 3.0 μM) | + (activity was measured to be greater than or equal to 4.0 μM) | – |
| Cc1ccc2c(c1)C1(CCN(C3CC4CCC3C4)CC1)CN2S(C)(=O)=O (stereo not drawn) [compound 232] | < 65 | > 70 | ++ (activity was measured to be between 0.7 μM and 3.0 μM) | +++ (activity was measured to be less than or equal to 0.1 μM) | – |
| CC(=O)N[C@H]1CC2(CCN(CC3CCCCC3)CC2)c2ccccc21 [compound 184] | > 85 | 55 to 70 | ++ (activity was measured to be between 0.7 μM and 3.0 μM) | + (activity was measured to be greater than or equal to 4.0 μM) | – |
| CCCc1cnc(N2CCC(N3CCC4(CC3)CN(C(=O)N(C)C)c3ccccc34)CC2)cn1 [compound 459] | – | – | – | – | Emax (M1 muscarinic receptor; [4]): > 100%; M1 Activity (M1 muscarinic receptor; compounds 455-509): ++ (activity was measured to be between 2.0 μM and 5.0 μM); Emax (M4 muscarinic receptor; [4]): 25 to 100%; M4 Activity (M4 muscarinic receptor; compounds 455-509): ++ (activity was measured to be between 2.0 μM and 5.0 μM) |
| CN(C)C(=O)N1CC2(CCN(C3CCN(c4cccc(F)c4)CC3)CC2)c2cc(F)ccc21 [compound 438] | 65 to 85 | 55 to 70 | – | – | M1 Activity (M1 muscarinic receptor; compound nos. 1-454): ++ (activity was measured to be between 0.7 μM and 3.0 μM); M4 Activity (M4 muscarinic receptor; compound nos. 1-454): +++ (activity was measured to be less than or equal to 0.1 μM) |
| COCCOC(=O)N1CC2(CCN(C3CC4CCC(C3)N4C(=O)O[C@H]3CCOC3)CC2)c2cc(F)ccc21 (stereo partly drawn) [compound 80] | < 65 | < 55 | ++ (activity was measured to be between 0.7 μM and 3.0 μM) | ++ (activity was measured to be between 0.1 μM and 4.0 μM) | – |
| COc1ccc(F)cc1N1CCC(N2CCC3(CC2)CN(C(=O)N(C)C)c2ccc(F)cc23)CC1 [compound 443] | 65 to 85 | 55 to 70 | – | – | M1 Activity (M1 muscarinic receptor; compound nos. 1-454): ++ (activity was measured to be between 0.7 μM and 3.0 μM); M4 Activity (M4 muscarinic receptor; compound nos. 1-454): ++ (activity was measured to be between 0.1 μM and 4.0 μM) |
| CC(=O)N1CC2(CCN(C3CCN(C(=O)OCCF)C3)CC2)c2cc(F)ccc21 (stereo not drawn) [compound 394] | < 65 | < 55 | – | – | M1 Activity (M1 muscarinic receptor; compound nos. 1-454): +++ (activity was measured to be less than or equal to 0.7 μM); M4 Activity (M4 muscarinic receptor; compound nos. 1-454): ++ (activity was measured to be between 0.1 μM and 4.0 μM) |
| CCC(=O)CCN1CC2(CCN(C[C@@H]3C[C@H]4C=C[C@H]3C4)CC2)c2cc(F)ccc21 [compound 12] | < 65 | < 55 | +++ (activity was measured to be less than or equal to 0.7 μM) | ++ (activity was measured to be between 0.1 μM and 4.0 μM) | – |
| CCOC(=O)N1CCC(N2CCC3(CC2)C[C@H](NC(C)=O)c2ccccc23)CC1 [compound 61] | – | – | +++ (activity was measured to be less than or equal to 0.7 μM) | ++ (activity was measured to be between 0.1 μM and 4.0 μM) | M1 Efficacy (M1 muscarinic receptor; [1]): ++ (efficacy was calculated to be between 85% and 65%); M4 Efficacy (M4 muscarinic receptor; [1]): ++ (efficacy was calculated to be between 70% and 55%) |
| CCON=C1CCC(N2CCC3(CC2)CN(C(C)=O)c2ccc(F)cc23)CC1 (stereo not drawn) [compound 86, 1-(1′-(4-(ethoxyimino)cyclohexyl)-5-fluorospiro[indoline-3,4′-piperidine]-1-yl)ethanone] | 65 to 85 | < 55 | +++ (activity was measured to be less than or equal to 0.7 μM) | + (activity was measured to be greater than or equal to 4.0 μM) | – |
| CCOC(=O)N1C2CCC1CC(N1CCC3(CC1)CC(NC(C)=O)c1ccccc13)C2 (stereo not drawn) [compound 318] | 65 to 85 | > 70 | +++ (activity was measured to be less than or equal to 0.7 μM) | +++ (activity was measured to be less than or equal to 0.1 μM) | – |
| CC(=O)N1CC2(CCN(C3CCC(C(F)(F)F)CC3)CC2)c2cc(F)ccc21 (stereo not drawn) [compound 236] | 65 to 85 | 55 to 70 | +++ (activity was measured to be less than or equal to 0.7 μM) | ++ (activity was measured to be between 0.1 μM and 4.0 μM) | – |
| CC(C)OC(=O)N1C2CCC1CC(N1CCC3(CC1)CN(C(=O)N(C)C)c1ccc(F)cc13)C2 (stereo not drawn) [compound 108] | 65 to 85 | < 55 | +++ (activity was measured to be less than or equal to 0.7 μM) | ++ (activity was measured to be between 0.1 μM and 4.0 μM) | – |
| CC(=O)N[C@H]1CC2(CCN(CC3CC4CCC3CC4)CC2)c2ccccc21 (stereo partly drawn) [compound 29] | > 85 | > 70 | +++ (activity was measured to be less than or equal to 0.7 μM) | +++ (activity was measured to be less than or equal to 0.1 μM) | – |
| O=C(O[C@@H]1CCOC1)N1CC2(CCN(C3CC4CCC(C3)N4C(=O)O[C@H]3CCOC3)CC2)c2cc(F)ccc21 (stereo partly drawn) [compound 198] | 65 to 85 | < 55 | ++ (activity was measured to be between 0.7 μM and 3.0 μM) | + (activity was measured to be greater than or equal to 4.0 μM) | – |
| CCOC(=O)N1C2CCC1CC(N1CCC3(CC1)CNc1ccc(Cl)cc13)C2 (stereo not drawn) [compound 351] | 65 to 85 | > 70 | +++ (activity was measured to be less than or equal to 0.7 μM) | ++ (activity was measured to be between 0.1 μM and 4.0 μM) | – |
| O=C(OC1CCC1)N1CC2(CCN(C3CC4CCC(C3)N4C(=O)O[C@H]3CCOC3)CC2)c2cc(F)ccc21 (stereo partly drawn) [compound 125] | 65 to 85 | < 55 | +++ (activity was measured to be less than or equal to 0.7 μM) | ++ (activity was measured to be between 0.1 μM and 4.0 μM) | – |
| O=C(C1CC1)N1CC2(CCN(C3CC4CCC(C3)N4C(=O)O[C@@H]3CCOC3)CC2)c2cc(F)ccc21 (stereo partly drawn) [compound 87] | 65 to 85 | < 55 | +++ (activity was measured to be less than or equal to 0.7 μM) | + (activity was measured to be greater than or equal to 4.0 μM) | – |
| CC(=O)N1CC2(CCN(C3CCN(c4cncc(C)n4)CC3)CC2)c2ccccc21 [compound 470] | – | – | – | – | Emax (M1 muscarinic receptor; [4]): > 100%; M1 Activity (M1 muscarinic receptor; compounds 455-509): +++ (activity was measured to be less than or equal to 2.0 μM); Emax (M4 muscarinic receptor; [4]): 25 to 100%; M4 Activity (M4 muscarinic receptor; compounds 455-509): ++ (activity was measured to be between 2.0 μM and 5.0 μM) |
| O=C(OC1CCC1)N1C2CCC1CC(N1CCC3(CC1)COc1ccc(F)cc13)C2 (stereo not drawn) [compound 123] | < 65 | < 55 | ++ (activity was measured to be between 0.7 μM and 3.0 μM) | + (activity was measured to be greater than or equal to 4.0 μM) | – |
